Measured values reported in patent US20140038181A1, “CHEMICALLY SUBSTITUTED THERMOSENSITIVE PROBES AND COFACTORS FOR HOT START LIGATION” (TRILINK BIOTECHNOLOGIES, priority 2011, published 2014).

Assay: Thermal conversion of 2′,3′-substituted ATP to unsubstituted ATP in ligase buffer at 95° C. (HPLC)
Format: physicochemical
Conditions: for Concentration of unsubstituted ATP: 1 mM 2′,3′-substituted ATP
Description: The reactions were monitored by analysis of the aliquot of incubated mixture by reverse-phase and anion-exchange HPLC.

SMILES: CC(C)(C)OCCO[C@@H]1[C@H](OCCOC(C)(C)C)[C@@H](COP(=O)(O)OP(=O)(O)OP(=O)(O)O)O[C@H]1n1cnc2c(N)ncnc21 [2′,3′-TBE-substituted ATP, 2′,3′-O-bis-[2-(tert-butoxy)]ethyl-adenosine-5′-triphosphate]
- Concentration of unsubstituted ATP (ligase buffer pH 7.5, 5 min): 569 µM
- Concentration of unsubstituted ATP (ligase buffer pH 7.5, 10 min): 857 µM
- Concentration of unsubstituted ATP (ligase buffer pH 7.5, 20 min): 970 µM
- cofactor molecules converted to the unmodified ATP (2 min, ligation buffer): about 20%
- conversion to unmodified ATP (20 min, ligation buffer): more than 85%
